NC(=O)c1c(F)c(F)c(F)c(F)c1F
in water
Conditions | solubility (mole fraction)
291.8 K | 0.00018
297.5 K | 0.00026
303.3 K | 0.00034
310.3 K | 0.0006

O=C(Nc1c(F)c(F)c(F)c(F)c1F)C(=O)Nc1c(F)c(F)c(F)c(F)c1F
Conditions | solubility (mole fraction)
in 2-butanone, 284.2 K | 0.00793
in 2-butanone, 287.1 K | 0.00854
in 2-butanone, 289.4 K | 0.00897
in 2-butanone, 293.4 K | 0.00984
in 2-butanone, 303.3 K | 0.0126
in 2-butanone, 314.7 K | 0.0168
in 2-butanone, 323.9 K | 0.0209
in 2-butanone, 327.2 K | 0.023
in 2-butanone, 331.1 K | 0.025
in 2-butanone, 333.4 K | 0.0271
in 2-butanone, 336.9 K | 0.029
in ethyl acetate, 281.1 K | 0.00822
in ethyl acetate, 285.6 K | 0.00934
in ethyl acetate, 291.9 K | 0.0105
in ethyl acetate, 293.5 K | 0.0116
in ethyl acetate, 303.7 K | 0.0138
in ethyl acetate, 310.9 K | 0.017
in ethyl acetate, 321.4 K | 0.0206
in ethyl acetate, 325.1 K | 0.0229
in ethyl acetate, 326.7 K | 0.0251
in ethyl acetate, 332.2 K | 0.0274
in ethyl acetate, 334.9 K | 0.0295

O=c1[nH]c(=O)n([C@H]2C[C@H](O)[C@@H](CO)O2)cc1I
in water
Conditions | solubility (mole fraction)
302.2 K | 0.00013
312.6 K | 0.00021
317.8 K | 0.00026
321.9 K | 0.00039
323 K | 0.00027
326.2 K | 0.00041
332 K | 0.00051
336 K | 0.00047
343.1 K | 0.00076
348.6 K | 0.00089
349.8 K | 0.00102
